# ChEMBL document CHEMBL1150236, “Dragonamides C and D, linear lipopeptides from the marine cyanobacterium brown Lyngbya polychroa” (2008)
# Square brackets hold non-standard residues; d marks the D form. Peptide text beside a SMILES is read from it. * marks the point of attachment. NMeV = CN[C@H](C(=O)O)C(C)C; X1 = C#CCCC/C(=C\C(=O)*)OC; X2 = C#CCCCC(=O)CC(=O)*
# How the values were obtained:
# Type in all cases: functional
# [1] = tested on: IMR-32; assay: Cytotoxicity against human IMR32 cells after 48 hrs by MTT assay; conditions: IMR-32, 48 h
# [2] = tested on: U2OS; assay: Cytotoxicity against human U2OS cells after 48 hrs by MTT assay
# [3] = tested on: HT-29; assay: Cytotoxicity against human HT29 cells after 48 hrs by MTT assay; conditions: HT-29, 48 h
Compound,GI50 [1],GI50 [2],GI50 [3]
C#CCCC/C(=C\C(=O)N(C)[C@H](C(=O)N(C)[C@H](C(=O)N(C)[C@H](C(=O)N(C)[C@H](C(N)=O)C(C)C)C(C)C)C(C)C)C(C)C)OC [DRAGONAMIDE C] (X1-[NMeV][NMeV][NMeV][NMeV]-NH2),49 µM,56 µM,22 µM
C#CCCCC(=O)CC(=O)N(C)[C@H](C(=O)N(C)[C@H](C(=O)N(C)[C@H](C(=O)N(C)[C@H](C(N)=O)C(C)C)C(C)C)C(C)C)C(C)C [DRAGONAMIDE D] (X2-[NMeV][NMeV][NMeV][NMeV]-NH2),51 µM,59 µM,32 µM
